Laboratory results as given in ChEMBL document CHEMBL1150977, “A quantitative analysis of kinase inhibitor selectivity” (Nat Biotechnol, 2008).

Assays:
Ephrin type-A receptor 3 = target: T1, Ephrin type-A receptor 3 (Homo sapiens, UniProt P29320)
T1 sequence (P29320 whole entry): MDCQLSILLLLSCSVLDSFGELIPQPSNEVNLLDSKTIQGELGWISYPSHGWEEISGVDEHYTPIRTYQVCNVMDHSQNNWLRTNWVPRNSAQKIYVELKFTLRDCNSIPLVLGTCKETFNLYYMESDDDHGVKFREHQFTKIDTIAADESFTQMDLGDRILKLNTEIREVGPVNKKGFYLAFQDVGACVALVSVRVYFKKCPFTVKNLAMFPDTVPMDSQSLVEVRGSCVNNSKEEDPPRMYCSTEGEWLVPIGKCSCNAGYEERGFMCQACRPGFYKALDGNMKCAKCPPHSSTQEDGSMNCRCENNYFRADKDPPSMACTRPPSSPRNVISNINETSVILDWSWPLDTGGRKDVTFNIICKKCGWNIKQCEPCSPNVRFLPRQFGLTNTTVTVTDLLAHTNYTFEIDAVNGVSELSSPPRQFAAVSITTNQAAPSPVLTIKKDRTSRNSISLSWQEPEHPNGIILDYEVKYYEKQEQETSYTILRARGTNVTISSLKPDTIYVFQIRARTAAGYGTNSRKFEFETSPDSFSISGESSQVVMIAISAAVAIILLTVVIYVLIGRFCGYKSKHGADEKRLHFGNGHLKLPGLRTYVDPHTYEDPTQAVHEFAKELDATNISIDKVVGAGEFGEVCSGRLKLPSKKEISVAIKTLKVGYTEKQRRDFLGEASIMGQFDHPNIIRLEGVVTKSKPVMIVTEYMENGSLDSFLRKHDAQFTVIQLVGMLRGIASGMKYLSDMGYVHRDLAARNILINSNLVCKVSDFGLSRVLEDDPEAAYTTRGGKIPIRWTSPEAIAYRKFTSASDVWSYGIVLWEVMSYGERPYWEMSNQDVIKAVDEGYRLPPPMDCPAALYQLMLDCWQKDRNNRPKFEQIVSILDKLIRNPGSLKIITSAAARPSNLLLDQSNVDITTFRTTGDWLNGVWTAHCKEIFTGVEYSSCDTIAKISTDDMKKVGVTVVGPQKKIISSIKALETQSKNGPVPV

[1] = target: Citron Rho-interacting kinase (Homo sapiens, UniProt O14578)
[2] = target: T2, Interleukin-1 receptor-associated kinase 3 (Homo sapiens, UniProt Q9Y616)
T2 sequence (Q9Y616 whole entry): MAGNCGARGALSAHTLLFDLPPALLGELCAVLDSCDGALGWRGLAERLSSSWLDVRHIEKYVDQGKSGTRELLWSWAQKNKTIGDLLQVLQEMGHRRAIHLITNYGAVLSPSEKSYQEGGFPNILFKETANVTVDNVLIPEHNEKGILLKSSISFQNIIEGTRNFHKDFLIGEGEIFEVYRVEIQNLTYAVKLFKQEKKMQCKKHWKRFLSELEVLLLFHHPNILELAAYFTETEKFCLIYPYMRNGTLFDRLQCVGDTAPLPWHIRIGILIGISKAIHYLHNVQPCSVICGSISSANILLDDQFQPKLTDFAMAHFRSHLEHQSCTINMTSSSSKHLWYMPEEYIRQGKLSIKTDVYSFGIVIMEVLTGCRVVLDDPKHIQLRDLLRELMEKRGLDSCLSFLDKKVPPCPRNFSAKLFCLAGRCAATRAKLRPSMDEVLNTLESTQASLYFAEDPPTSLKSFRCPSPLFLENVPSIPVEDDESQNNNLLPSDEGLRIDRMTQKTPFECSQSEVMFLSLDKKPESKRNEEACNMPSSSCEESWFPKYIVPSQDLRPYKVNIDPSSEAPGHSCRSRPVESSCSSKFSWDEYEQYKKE

Ephrin type-B receptor 2 = target: T3, Ephrin type-B receptor 2 (Homo sapiens, UniProt P29323)
T3 sequence (P29323 whole entry): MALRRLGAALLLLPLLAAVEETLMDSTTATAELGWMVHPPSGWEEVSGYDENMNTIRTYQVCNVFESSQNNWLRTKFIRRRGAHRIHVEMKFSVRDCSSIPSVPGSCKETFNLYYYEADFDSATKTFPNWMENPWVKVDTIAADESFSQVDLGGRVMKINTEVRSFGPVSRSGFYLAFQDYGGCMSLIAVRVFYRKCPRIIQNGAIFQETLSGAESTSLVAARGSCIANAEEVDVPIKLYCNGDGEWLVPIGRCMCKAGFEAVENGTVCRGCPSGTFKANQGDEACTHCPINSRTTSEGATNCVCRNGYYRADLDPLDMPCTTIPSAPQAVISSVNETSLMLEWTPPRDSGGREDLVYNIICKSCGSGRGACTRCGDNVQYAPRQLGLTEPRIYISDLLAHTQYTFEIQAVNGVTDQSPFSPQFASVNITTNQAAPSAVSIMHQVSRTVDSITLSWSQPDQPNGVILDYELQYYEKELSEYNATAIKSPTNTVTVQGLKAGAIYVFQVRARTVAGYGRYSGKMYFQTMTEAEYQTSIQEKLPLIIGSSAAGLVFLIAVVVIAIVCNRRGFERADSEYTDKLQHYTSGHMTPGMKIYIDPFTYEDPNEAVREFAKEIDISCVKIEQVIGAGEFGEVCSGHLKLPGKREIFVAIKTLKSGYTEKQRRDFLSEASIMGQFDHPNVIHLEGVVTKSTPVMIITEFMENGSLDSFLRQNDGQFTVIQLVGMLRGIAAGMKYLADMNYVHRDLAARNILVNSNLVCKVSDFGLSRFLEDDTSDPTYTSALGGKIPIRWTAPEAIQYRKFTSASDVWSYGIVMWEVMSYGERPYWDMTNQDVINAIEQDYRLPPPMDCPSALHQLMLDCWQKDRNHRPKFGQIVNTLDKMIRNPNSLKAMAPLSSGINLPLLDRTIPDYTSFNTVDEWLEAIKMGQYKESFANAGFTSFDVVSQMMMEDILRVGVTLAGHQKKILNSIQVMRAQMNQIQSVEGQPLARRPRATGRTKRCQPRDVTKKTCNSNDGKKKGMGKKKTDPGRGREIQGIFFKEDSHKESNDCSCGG

[3] = target: Death-associated protein kinase 3 (Homo sapiens, UniProt O43293)
[4] = target: Serine/threonine-protein kinase 10 (Homo sapiens, UniProt O94804)
Chain of Serine/threonine-protein kinase 10 (O94804 whole entry): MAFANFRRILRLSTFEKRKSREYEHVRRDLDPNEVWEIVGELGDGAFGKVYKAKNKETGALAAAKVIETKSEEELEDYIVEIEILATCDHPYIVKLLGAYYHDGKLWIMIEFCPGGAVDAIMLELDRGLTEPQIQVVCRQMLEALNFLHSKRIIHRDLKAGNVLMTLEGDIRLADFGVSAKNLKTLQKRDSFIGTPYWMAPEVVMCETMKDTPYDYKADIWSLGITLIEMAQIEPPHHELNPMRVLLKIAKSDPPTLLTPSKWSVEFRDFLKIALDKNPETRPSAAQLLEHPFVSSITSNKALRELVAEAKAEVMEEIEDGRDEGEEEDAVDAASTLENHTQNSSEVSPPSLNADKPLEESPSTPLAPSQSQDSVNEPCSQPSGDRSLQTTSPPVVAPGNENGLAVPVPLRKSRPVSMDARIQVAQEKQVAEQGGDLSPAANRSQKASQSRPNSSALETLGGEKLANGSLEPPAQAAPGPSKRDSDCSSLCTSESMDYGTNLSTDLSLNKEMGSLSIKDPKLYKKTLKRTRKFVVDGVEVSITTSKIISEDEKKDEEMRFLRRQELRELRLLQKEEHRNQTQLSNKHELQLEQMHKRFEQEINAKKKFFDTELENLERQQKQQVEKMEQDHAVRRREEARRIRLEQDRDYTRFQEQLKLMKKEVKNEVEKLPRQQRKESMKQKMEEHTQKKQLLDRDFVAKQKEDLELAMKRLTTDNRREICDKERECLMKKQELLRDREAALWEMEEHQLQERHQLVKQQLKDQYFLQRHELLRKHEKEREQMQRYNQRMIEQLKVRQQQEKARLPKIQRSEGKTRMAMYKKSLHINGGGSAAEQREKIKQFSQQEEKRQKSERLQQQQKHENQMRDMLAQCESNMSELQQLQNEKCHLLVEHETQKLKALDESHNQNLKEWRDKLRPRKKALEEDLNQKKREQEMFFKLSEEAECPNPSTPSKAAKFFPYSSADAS

Chain of Citron Rho-interacting kinase (O14578 whole entry): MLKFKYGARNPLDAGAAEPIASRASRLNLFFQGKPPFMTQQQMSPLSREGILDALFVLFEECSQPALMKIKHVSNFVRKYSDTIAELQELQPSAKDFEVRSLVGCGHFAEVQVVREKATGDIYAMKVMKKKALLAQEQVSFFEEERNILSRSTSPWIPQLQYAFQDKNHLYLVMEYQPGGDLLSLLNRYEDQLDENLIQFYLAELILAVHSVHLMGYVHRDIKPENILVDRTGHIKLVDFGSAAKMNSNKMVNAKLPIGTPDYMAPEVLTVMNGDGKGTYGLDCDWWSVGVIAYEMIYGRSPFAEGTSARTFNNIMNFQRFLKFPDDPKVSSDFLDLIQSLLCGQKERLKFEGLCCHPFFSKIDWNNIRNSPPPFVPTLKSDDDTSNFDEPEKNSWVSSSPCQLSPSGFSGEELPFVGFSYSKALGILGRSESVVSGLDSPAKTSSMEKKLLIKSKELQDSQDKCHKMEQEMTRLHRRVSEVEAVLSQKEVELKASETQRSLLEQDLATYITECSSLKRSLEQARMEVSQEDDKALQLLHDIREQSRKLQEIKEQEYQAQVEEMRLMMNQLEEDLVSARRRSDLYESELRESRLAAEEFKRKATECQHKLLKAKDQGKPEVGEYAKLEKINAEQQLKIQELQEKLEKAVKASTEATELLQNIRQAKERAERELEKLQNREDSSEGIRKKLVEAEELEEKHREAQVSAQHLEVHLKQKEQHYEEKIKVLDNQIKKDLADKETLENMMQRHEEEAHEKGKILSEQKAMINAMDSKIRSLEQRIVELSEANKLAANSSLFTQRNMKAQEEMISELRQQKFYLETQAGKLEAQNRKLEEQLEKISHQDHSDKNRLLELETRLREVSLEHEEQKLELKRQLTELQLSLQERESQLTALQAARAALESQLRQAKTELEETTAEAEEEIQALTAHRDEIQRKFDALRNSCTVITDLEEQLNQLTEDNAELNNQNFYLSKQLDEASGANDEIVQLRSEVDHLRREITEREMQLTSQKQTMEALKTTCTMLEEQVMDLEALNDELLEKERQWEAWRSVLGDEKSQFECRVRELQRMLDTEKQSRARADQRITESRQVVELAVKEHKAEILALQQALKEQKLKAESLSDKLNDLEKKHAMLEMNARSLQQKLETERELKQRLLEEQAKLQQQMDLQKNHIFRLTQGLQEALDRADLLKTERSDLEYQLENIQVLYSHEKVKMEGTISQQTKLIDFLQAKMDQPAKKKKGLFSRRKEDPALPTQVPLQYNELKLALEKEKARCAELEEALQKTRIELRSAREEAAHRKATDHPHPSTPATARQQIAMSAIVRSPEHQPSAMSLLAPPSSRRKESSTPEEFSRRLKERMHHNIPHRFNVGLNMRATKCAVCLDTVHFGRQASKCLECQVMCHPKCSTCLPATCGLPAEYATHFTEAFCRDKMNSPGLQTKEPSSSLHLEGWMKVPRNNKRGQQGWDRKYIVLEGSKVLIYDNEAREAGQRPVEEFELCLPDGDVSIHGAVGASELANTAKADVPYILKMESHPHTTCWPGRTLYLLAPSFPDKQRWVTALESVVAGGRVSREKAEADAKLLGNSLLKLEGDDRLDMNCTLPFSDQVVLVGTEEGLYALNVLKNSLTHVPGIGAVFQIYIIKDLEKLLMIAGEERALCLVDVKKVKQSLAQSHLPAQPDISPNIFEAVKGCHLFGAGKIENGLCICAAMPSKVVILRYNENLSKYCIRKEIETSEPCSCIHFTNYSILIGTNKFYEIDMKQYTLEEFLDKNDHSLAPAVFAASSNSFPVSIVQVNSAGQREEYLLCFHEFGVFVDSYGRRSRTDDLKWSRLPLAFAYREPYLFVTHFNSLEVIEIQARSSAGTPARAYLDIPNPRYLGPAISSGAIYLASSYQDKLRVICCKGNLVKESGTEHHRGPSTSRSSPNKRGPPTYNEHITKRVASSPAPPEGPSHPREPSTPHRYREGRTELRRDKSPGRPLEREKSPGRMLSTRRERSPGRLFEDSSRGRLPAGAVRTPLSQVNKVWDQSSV
Chain of Death-associated protein kinase 3 (O43293 whole entry): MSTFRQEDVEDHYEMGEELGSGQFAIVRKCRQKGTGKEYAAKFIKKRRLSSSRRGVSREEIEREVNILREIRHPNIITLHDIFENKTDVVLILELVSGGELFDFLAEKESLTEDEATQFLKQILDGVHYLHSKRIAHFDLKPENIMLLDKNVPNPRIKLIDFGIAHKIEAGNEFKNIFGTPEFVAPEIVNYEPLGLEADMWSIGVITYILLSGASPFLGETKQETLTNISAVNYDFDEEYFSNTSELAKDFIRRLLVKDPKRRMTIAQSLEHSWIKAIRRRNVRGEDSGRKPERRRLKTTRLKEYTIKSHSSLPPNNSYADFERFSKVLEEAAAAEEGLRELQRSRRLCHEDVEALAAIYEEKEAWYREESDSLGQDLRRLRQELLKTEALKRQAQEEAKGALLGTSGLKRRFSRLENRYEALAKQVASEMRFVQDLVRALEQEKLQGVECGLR

Structure (SMILES)	Kd (Ephrin type-A receptor 3)	Kd [1]	Kd [2]	Kd (Ephrin type-B receptor 2)	Kd [3]	Kd [4]
COCC(=O)NC/C=C/c1ccc2ncnc(Nc3ccc(Oc4ccc(C)nc4)c(C)c3)c2c1 [CP-724714]	> 10 µM	> 10 µM	> 10 µM	> 10 µM	> 10 µM	> 10 µM
CCOc1cc2ncc(C#N)c(Nc3ccc(F)c(Cl)c3)c2cc1NC(=O)/C=C/CN(C)C [PELITINIB]		0.31 µM	> 10 µM	> 10 µM		
NC(=O)c1ccc(-c2nc(-c3ccc4c(c3)OCO4)c(-c3ccccn3)[nH]2)cc1 [SB-431542]	> 10 µM	> 10 µM	> 10 µM	> 10 µM	> 10 µM	> 10 µM
Nc1nc(Nc2ccc(S(N)(=O)=O)cc2)nn1C(=O)c1c(F)cccc1F [JNJ-7706621]	> 10 µM	> 10 µM	3.4 µM	> 10 µM	> 10 µM	
Oc1ccc(-c2nc(-c3ccncc3)c(-c3ccc(F)cc3)[nH]2)cc1 [SB-202190]	> 10 µM	0.51 µM	> 10 µM	> 10 µM	> 10 µM	> 10 µM
